Columns and labels:
[1] = system: Staph. aureus, ATCC 25923; assay: In vitro kill test of diluted formulations at 5° C., log reduction; type: cell-based, Staphylococcus aureus
[2] = system: E. coli 0157:H7 (ATCC# 700728); assay: Dip treatment of inoculated beef adipose, log reduction; type: cell-based; conditions: formulations diluted to 1% w/w + 2% lactic acid; for Log Reduction, 60 min at 5° C. / Log Reduction, 24 hours at 5° C.: 5 min treatment
Protocol: Bacteria were grown in the same procedure described in Example 3. The bacteria strain was non-toxic E. coli 0157: H7 (ATCC# 700728).
After inoculation, the meat pieces were placed in a cooler at 5° C. for 30+/−5 minutes to allow attachment of the organisms.
A 11.4 cm^2 coring device was used to cut surface tissue excisions no thicker than 3 mm from the inoculated samples. The stainless steel coring device was disinfected prior to each run to prevent cross-contamination among the samples. Each circular tissue excision was placed in a filter stomacher bag with 15 ml of letheen diluent and stomached for 1 minuted prior to plating.
A 11.4 cm^2 coring device was used to cut surface tissue excisions no thicker than 3 mm from the inoculated samples. The stainless steel coring device was disinfected prior to each run to prevent cross-contamination among the meat samples.
The solution was shaken well until a milky emulsion formed. The emulsion solutions were used immediately after being made.
The circles were removed immediately and the excess solution was allowed to drip from the circle for 5 sec.
The circles were placed in stomacher bags. Two of them were placed into the refrigerator and the third was tested by adding 15 ml of Letheen diluent to the third stomacher bag. This bag was stomached for 1 minute prior to plating. Duplicate samples were plated from the undiluted sample in the stomacher bag. Serial ten-fold dilutions were made and plated on a [sequence] EB plate from each dilution. After incubation the plates were counted as recommended on the package insert. After 1 h refrigeration, one of the refrigerated stomacher bags was removed and the above steps repeated for the 1 h test circle. After 24 h refrigeration, the last of the stomacher bags was removed and the above steps repeated for the 24 h test circle.
Plates were read after incubation and log reductions determined as indicated in Example 3.

CC(O)C(=O)O (stereo not drawn) [2% Lactic Acid, Lactic Acid]
Log Reduction [1]: <2.72 log
Log Reduction, 60 min at 5° C. ([2]; solution at 5° C.): 1.37 log
Log Reduction, 24 hours at 5° C. ([2]; solution at 5° C.): 2.26 log
Log Reduction, 60 min at 5° C. ([2]; solution at 23° C.): 1.74 log
Log Reduction, 60 min at 5° C. ([2]; solution at 50° C.): 2.43 log
Log Reduction, 24 hours at 5° C. ([2]; solution at 50° C.): 2.54 log
Log Reduction, 5 min dip ([2]; solution at 5° C.): 0.51 log
Log Reduction, 5 min dip ([2]; solution at 23° C.): 0.87 log
Log Reduction, 5 min dip ([2]; solution at 50° C.): 1.72 log

Reference: patent US20050084471A1, “Concentrated antimicrobial compositions and methods” (3M Innovative Properties Company, priority 2003, published 2005)
